Two compounds from ChEMBL document CHEMBL5338731, “Development of Neuropeptide Hemokinin-1 Analogues with Antimicrobial and Wound-Healing Activity” (J Med Chem, 2023) can be followed below.

Active and inactive are the calls of the source. The rule behind the calls is not given here. Bounds are passed on as bounds.

A short description of series [1]: Hemolytic activity in mouse erythrocytes assessed as haemoglobin release at 10 uM incubated for 1 hrs by microplate reader method. It counts as toxicity, cell-based, Erythrocyte. The following applies: read-out: Activity.
The species named for series [2] is Mus musculus. Nature of the series: Wound healing activity in Kunming mouse full-thickness excisional wound model assessed as increase in wound closure at 1 10^-7M, TOP BID and measured upto 8 days by image analysis. Type of series: functional, organism-based. As to conditions: time <= 8.0 day.
In series [3] the test system is Cell membrane. Nature of the series: Induction of cell membrane disruption in Staphylococcus aureus ATCC 25923 assessed as distinct wrinkling in cell morphology at 2 times MIC incubated for 2 hrs by SEM analysis. It counts as subcellular.
The subject of series [4] is Escherichia coli. In words: Antimicrobial activity against Escherichia coli ATCC 25922 assessed as inhibition of bacterial growth incubated for 18 hrs by serial dilution method. Type of series: functional.
For series [5], the system named is Escherichia coli. In words: Antimicrobial activity against Escherichia coli ML-35 assessed as inhibition of bacterial growth incubated for 18 hrs by serial dilution method. It counts as functional.
Series [6] relates to Pseudomonas aeruginosa. Nature of the series: Antimicrobial activity against Pseudomonas aeruginosa ATCC 27853 assessed as inhibition of bacterial growth incubated for 18 hrs by serial dilution method. It counts as functional.
Series [7] has as its system Pseudomonas aeruginosa. Nature of the series: Antimicrobial activity against Pseudomonas aeruginosa PAO1 assessed as inhibition of bacterial growth incubated for 18 hrs by serial dilution method. Type of series: functional.
The test system of series [8] is Staphylococcus aureus. In words: Antimicrobial activity against Staphylococcus aureus ATCC 25923 assessed as inhibition of bacterial growth incubated for 18 hrs by serial dilution method. It counts as functional.
Series [9] relates to Staphylococcus aureus. In words: Antimicrobial activity against Staphylococcus aureus ATCC 29213 assessed as inhibition of bacterial growth incubated for 18 hrs by serial dilution method. Type of series: functional.
The subject of another series is Bacillus subtilis. In words: Antimicrobial activity against Bacillus subtilis ATCC 23857 assessed as inhibition of bacterial growth incubated for 18 hrs by serial dilution method. It counts as functional.
Series [10] in a line: Hemolytic activity in mouse erythrocytes assessed as haemoglobin release at 400 uM incubated for 1 hrs by microplate reader method. It counts as toxicity, cell-based, Erythrocyte. As to conditions: read-out: Activity.
Series [11] relates to RAW264.7. In words: Anti-inflammatory activity in LPS-stimulated mouse RAW264.7 cells assessed as inhibition of NO production at 16 uM incubated for 24 hrs by Griess reagent based assay. It counts as functional, cell-based.
Series [12] is described as follows: Cytotoxicity against mouse RAW264.7 cells assessed as cell survival rate at 16 uM incubated for 24 hrs by MTT assay. As to conditions: read-out: Survival. It counts as toxicity, cell-based.
The test system of series [13] is RAW264.7. Nature of the series: Anti-inflammatory activity against LPS-stimulated mouse RAW264.7 cells assessed as reduction in TNF-alpha mRNA expression level at 1 to 16 uM incubated for 4 hrs by RT-qPCR analysis. It counts as functional, cell-based. As to conditions: dose 1-16 µM.
Series [14] concerns RAW264.7. Nature of the series: Anti-inflammatory activity against LPS-stimulated mouse RAW264.7 cells assessed as reduction in IL-1beta mRNA expression level at 1 to 16 uM incubated for 4 hrs by RT-qPCR analysis. Type of series: functional, cell-based. The following applies: dose 1-16 µM.
Series [15] concerns RAW264.7. Nature of the series: Anti-inflammatory activity against LPS-stimulated mouse RAW264.7 cells assessed as reduction in IL-6 mRNA expression level at 1 to 16 uM incubated for 4 hrs by RT-qPCR analysis. Type of series: functional, cell-based. The following applies: dose 1-16 µM.
For a further series, the system named is Lipopolysaccharide (LPS). In words: Binding affinity to Escherichia coli O111:B4 LPS assessed as dissociation constant by ITC assay.
The species entered for series [16] is Mus musculus. In words: Wound healing activity in Kunming mouse full-thickness excisional wound model assessed as increase in wound closure at 0.1 to 10 uM, TOP BID and measured upto 8 days by image analysis. It counts as functional, organism-based. The following applies: dose 0.1-10 µM, time <= 8.0 day.
For series [17], the species on record is Mus musculus. In words: Wound healing activity in Kunming mouse full-thickness excisional wound model with splints assessed as increase in wound healing rate at 1 10^-7M, TOP BID and measured upto 8 days by image analysis. It counts as functional, organism-based. As to conditions: time <= 8.0 day.
Series [18] has as its system NIH3T3. Nature of the series: Induction of cell proliferation in mouse NIH3T3 cells assessed as increase in cell viability at 0.1 to 1000 nM incubated for 48 hrs by MTT assay. As to conditions: dose 0.1-1000 nM. Type of series: functional, cell-based. A general note: Formazan colour is commonly taken as a measure of viable cells.
In series [19] the test system is NIH3T3. In words: Induction of cell migration in mouse NIH3T3 cells assessed as […] at 0.1 to 1000 nM incubated for 48 hrs by phase-contrast microscopy based scratch wound healing assay. It counts as functional. The following applies: dose 0.1-1000 nM.
In series [20] the test system is HEK293. In words: Induction of cell proliferation in human HEK293 cells expressing NK1R assessed as increase in cell viability at 0.1 to 1000 nM incubated for 48 hrs by MTT assay. It counts as functional, cell-based. As to conditions: dose 0.1-1000 nM.
For series [21], the system named is HEK293. In words: Induction of cell proliferation in human HEK293 cells assessed as increase in cell viability at 0.1 to 1000 nM incubated for 48 hrs by MTT assay. As to conditions: dose 0.1-1000 nM. Type of series: functional, cell-based.
Series [22] is filed under the species Mus musculus. In words: Antimicrobial activity in Staphylococcus aureus ATCC 25923 infected Kunming mouse excisional wound model assessed as decrease in bacterial growth at 1 10^-4M, TOP BID and measured upto 8 days by image analysis. The following applies: time <= 8.0 day. Type of series: functional, organism-based.
The species named for series [23] is Mus musculus. In words: Wound healing activity in Staphylococcus aureus ATCC 25923 infected Kunming mouse excisional wound model assessed as increase in wound repair at 1 10^-4M, TOP BID and measured upto 8 days by image analysis. It counts as functional, organism-based. The following applies: time <= 8.0 day.
For series [24], the species on record is Mus musculus. In words: Wound healing activity in STZ-induced Kunming mouse diabetic wound model assessed as increase in wound repair at 1 10^-7M, TOP BID and measured upto 8 days by image analysis. It counts as functional, organism-based. The following applies: time <= 8.0 day.
Series [25] relates to Escherichia coli. Nature of the series: Bactericidal activity against Escherichia coli ATCC 25922 assessed as reduction in colony forming unit at 1 times MIC and measured after 120 mins by time-kill kinetics assay. It counts as functional, organism-based.
Series [26] concerns Escherichia coli. Nature of the series: Bactericidal activity against Escherichia coli ATCC 25922 assessed as reduction in colony forming unit at 2 times MIC and measured after 90 mins by time-kill kinetics assay. It counts as functional, organism-based.
In series [27] the test system is Escherichia coli. Nature of the series: Bactericidal activity against Escherichia coli ATCC 25922 assessed as reduction in colony forming unit at 4 times MIC and measured after 60 mins by time-kill kinetics assay. Type of series: functional, organism-based.
For series [28], the system named is Staphylococcus aureus. In words: Bactericidal activity against Staphylococcus aureus ATCC 25923 assessed as reduction in colony forming unit at 1 to 4 times MIC and measured after 120 mins by time-kill kinetics assay. Type of series: functional, organism-based.
Series [29] has as its system Staphylococcus aureus. Nature of the series: Bactericidal activity against Staphylococcus aureus ATCC 25923 assessed as reduction in colony forming unit at 2 times MIC and measured after 120 mins by time-kill kinetics assay. It counts as functional, organism-based.
Series [30] deals with Cell membrane. Nature of the series: Induction of outer cell membrane permeability in Escherichia coli ATCC 25922 assessed as increase fluoresence intensity at 1 to 8 times of MIC and measured every mins for 15 mins by NPN uptake assay. It counts as subcellular.
Series [31] has as its system Cell membrane. Nature of the series: Induction of inner cell membrane permeabilization in Escherichia coli ML-35 assessed as increase in absorbance at 1 to 8 times of MIC and measured every 5mins for 90 mins by ONPG beta-galactosidase based assay. Type of series: subcellular.
In series [32] the test system is Cell membrane. In words: Induction of cell membrane disruption in Escherichia coli ATCC 25922 assessed as PI uptake at 2 times MIC incubated for 1 hrs by PI staining based confocal laser scanning microscopy. It counts as subcellular.
For series [33], the system named is Cell membrane. Nature of the series: Induction of cell membrane disruption in Staphylococcus aureus ATCC 25923 assessed as PI uptake at 2 times MIC incubated for 1 hrs by PI staining based confocal laser scanning microscopy. Type of series: subcellular.
Series [34] deals with Cell membrane. Nature of the series: Induction of cell membrane disruption in Escherichia coli ATCC 25922 assessed as distinct wrinkling in cell morphology at 2 times MIC incubated for 2 hrs by SEM analysis. Type of series: subcellular.
Series [35] relates to Cell membrane. Nature of the series: Induction of cell membrane disruption in Escherichia coli ATCC 25922 assessed as membrane blebbing at 2 times MIC incubated for 2 hrs by SEM analysis. It counts as subcellular.
Series [36] concerns Cell membrane. In words: Induction of cell membrane disruption in Staphylococcus aureus ATCC 25923 assessed as membrane blebbing at 2 times MIC incubated for 2 hrs by SEM analysis. It counts as subcellular.
Series [37] relates to Cell membrane. Nature of the series: Induction of cell membrane disruption in Escherichia coli ATCC 25922 assessed as separation between outer membrane and cytoplasmic membrane at 2 times MIC incubated for 2 hrs by TEM analysis. It counts as subcellular.
Series [38] deals with Cell membrane. In words: Induction of cell membrane disruption in Escherichia coli ATCC 25922 assessed as sparse cytoplasmic distribution at 2 times MIC incubated for 2 hrs by TEM analysis. Type of series: subcellular.
In series [39] the test system is Cell membrane. Nature of the series: Induction of cell membrane disruption in Escherichia coli ATCC 25922 assessed as coagulation of cytoplasmic elements at 2 times MIC incubated for 2 hrs by TEM analysis. It counts as subcellular.
The subject of series [40] is Cell membrane. In words: Induction of cell membrane disruption in Staphylococcus aureus ATCC 25923 assessed as separation between […] at 2 times MIC incubated for 2 hrs by TEM analysis. Type of series: subcellular.
Series [41] concerns Cell membrane. In words: Induction of cell membrane disruption in Staphylococcus aureus ATCC 25923 assessed as sparse cytoplasmic distribution at 2 times MIC incubated for 2 hrs by TEM analysis. It counts as subcellular.
Series [42] deals with Cell membrane. In words: Induction of cell membrane disruption in Staphylococcus aureus ATCC 25923 assessed as coagulation of cytoplasmic elements at 2 times MIC incubated for 2 hrs by TEM analysis. Type of series: subcellular.

Consider `CC[C@H](C)[C@H](NC(=O)CN)C(=O)NCC(=O)N[C@@H](C)C(=O)N[C@H](C(=O)N[C@@H](CC(C)C)C(=O)N[C@@H](CCCCN)C(=O)N[C@H](C(=O)N[C@@H](CC(C)C)C(=O)N[C@H](C(=O)N[C@H](C(=O)NCC(=O)N[C@@H](CC(C)C)C(=O)N1CCC[C@H]1C(=O)N[C@@H](C)C(=O)N[C@@H](CC(C)C)C(=O)N[C@H](C(=O)N[C@@H](CO)C(=O)N[C@@H](Cc1c[nH]c2ccccc12)C(=O)N[C@H](C(=O)N[C@@H](CCCCN)C(=O)N[C@@H](CCCNC(=N)N)C(=O)N[C@@H](CCCCN)C(=O)N[C@@H](CCCNC(=N)N)C(=O)N[C@@H](CCC(N)=O)C(=O)N[C@@H](CCC(N)=O)C(N)=O)[C@@H](C)CC)[C@@H](C)CC)[C@@H](C)O)[C@@H](C)O)C(C)C)C(C)C` [MELITTIN], for which, in series [1], the hemolysis at 1 h, 10 µM came out at 58.8%.
One may read the MIC as the lowest concentration found to suppress growth. The Kd is the equilibrium constant for the complex coming apart. Consider H-LKKWLKKWTLKASQFFGLM-NH2, for which the result in the series filed under Mus musculus [2], with Cell membrane [3], in the series filed under Mus musculus [17], in the series with NIH3T3 [18], in the series with NIH3T3 [19] and with HEK293 [20] was Active. For the same compound, the result in the series listed under Mus musculus [22], in the series listed under Mus musculus [24], in the series with Escherichia coli [25], with Escherichia coli [26], in the series with Escherichia coli [27] and with Staphylococcus aureus [28] was Active. Moreover, the result in the series on Staphylococcus aureus [29], in the series on Cell membrane [31], in the series on Cell membrane [32], in the series on Cell membrane [33], in the series on Cell membrane [34] and in the series on Cell membrane [35] was Active. Besides, the result in the series with Cell membrane [36], in the series with Cell membrane [37], in the series with Cell membrane [38], with Cell membrane [39], in the series with Cell membrane [40] and with Cell membrane [41] was Active. The outcome with Cell membrane [42] was Active. Also, the MIC in the series with Escherichia coli [4] is 2 µM; with Escherichia coli [5] it was 2 µM; in the series with Pseudomonas aeruginosa [6], 2 µM; with Pseudomonas aeruginosa [7], 2 µM; in the series on Staphylococcus aureus [8], 2 µM; in the series on Staphylococcus aureus [9] it was 4 µM. For the same compound, in the series with Bacillus subtilis, the MIC is 2 µM. In addition, the hemolysis at 1 h, 400 µM in [10] worked out at 19.5%. The inhibition result with RAW264.7 [11] is “Active”. Moreover, the viability at 24 h, 16 µM in series [12] was over 90%. Besides, the Activity entry with RAW264.7 [13], with RAW264.7 [14], in the series on RAW264.7 [15] and with Cell membrane [30] was “Dose-Dependent Effect” each time. Further, the equilibrium dissociation constant (Kd) in the series on Lipopolysaccharide (LPS) was 13.4 µM. The result in the series listed under Mus musculus [16], in the series on HEK293 [21] and in the series listed under Mus musculus [23] was inactive.
